What all share (assay type): cell-based
Assay [1] has as its system TM4SF5-null cells (SNU449P, SNU449Cp). Briefly: Degree of adhesion on fibronectin-precoated dishes, TM4SF5-null cells. The following applies: 20 μM TA 24 hr, reseeded on fibronectin 1 hr. How it is done: Thus, it could be thought that TA treatment induces anoikis of TM4SF5-expressing cells. To examine whether TA treatment affected cellular adhesion, the following procedure was performed prior to analysis of TA-meditated cell death, as described in the literature (Yang, X. et al., Palmitoylation supports assembly and function of integrin-tetraspanin complexes, J Cell Biol, 167, pp. 1231-40, 2004).
Cells were treated with 20 μM TA for 24 hr, and the floating cells were collected and reseeded on fibronectin-precoated dishes for 1 hr before determination of the degree of adhesion.

The test system of assay [2] is SNU449Tp and SNU449T16 expressing TM4SF5. Briefly: Analysis of cellular DNA content (sub-G1), TM4SF5-expressing cells. The following applies: 20 μM TA, 24 hr. The text has this: FIG. 19 is the result of analyzing cellular DNA content, after tiarellic acid (TA) treatment;
The subject of the next assay is TM4SF5-null cells. The assay is described as follows: Immunofluorescence of focal adhesions and actin, TM4SF5-null cells. The following applies: 20 μM TA. How it is done: Cells were treated with DMSO or 20 μM TA for 24 hrs. Then, the cells were plated on 10 μg/ml fibronectin-precoated coverslips and incubated for 2 hrs in the presence of DMSO or 20 μM TA. Subsequently, immunofluorescence staining was performed using pY^397 FAK, pY^118 paxillin, and actin, as described in the literature (Lee, S. Y. et al., Focal adhesion and actin organization by a cross-talk of TM4SF5 with integrin α2 are regulated by serum treatment, Exp Cell Res, 312, pp. 2983-99, 2006). Mounted samples were visualized by a fluorescent microscope (BX51, Olympus, Japan).

Assay [3] relates to Akt and caspase-3 in TM4SF5-expressing SNU449T16 cells. The assay is described as follows: Western blotting of cell survival and death-related signaling molecules. The following applies: various time periods. The procedure: FIG. 18 is the result of Western blotting of cell survival and death-related signaling molecules, after tiarellic acid (TA) treatment for various time periods;
Whole cell lysates from cells under diverse experimental conditions were prepared, as described in the literature (Lee, S. Y. et al., Focal adhesion and actin organization by a cross-talk of TM4SF5 with integrin α2 are regulated by serum treatment, Exp Cell Res, 312, pp. 2983-99, 2006). For example, cells were subjected to electroporation (950 μF, 250 V) with a control GFP, wild-type focal adhesion kinase (FAK), paxillin, p130Cas cDNA. One day after electroporation, cells were treated with TA (20 μM) for the indicated periods. Cells cultured normally or treated with TA at different concentrations for the indicated periods were harvested using RIPA buffer. Control or tumor tissues from nude mice were frozen immediately after surgery using liquid N2. Tissues in the liquid N2 was homogenized using a mortar and pestle, and extracted using 0.1% SDS containing RIPA buffer. […]

Assay [4] has as its system focal adhesion molecules in SNU449Cp cells expressing no TM4SF5. Briefly: Immunoblot of focal adhesion molecule expression and activation, SNU449Cp. The procedure: Whole cell lysates from cells under diverse experimental conditions were prepared, as described in the literature (Lee, S. Y. et al., Focal adhesion and actin organization by a cross-talk of TM4SF5 with integrin α2 are regulated by serum treatment, Exp Cell Res, 312, pp. 2983-99, 2006). For example, cells were subjected to electroporation (950 μF, 250 V) with a control GFP, wild-type focal adhesion kinase (FAK), paxillin, p130Cas cDNA. One day after electroporation, cells were treated with TA (20 μM) for the indicated periods. Cells cultured normally or treated with TA at different concentrations for the indicated periods were harvested using RIPA buffer. Control or tumor tissues from nude mice were frozen immediately after surgery using liquid N2. Tissues in the liquid N2 was homogenized using a mortar and pestle, and extracted using 0.1% SDS containing RIPA buffer. Standard Western blots of lysates were performed by using antibody against phospho-Y^397, Y^407, Y^577, Y^861, Y^925 FAK (BioSource International, Inc., Camarillo, Calif.), phospho-Y^416Src, c-Src, p15^INK4B, p16^INK4A (Santa Cruz Biotech., Santa Cruz, Calif.), FAK, p130Cas, paxillin, pY^118paxillin, active caspase-3 (BD Transduct. Lab., San Jose, Calif.), α-tubulin (Sigma, St Louis, Mo.), phopsho-S^473, or T^308Akt, Akt, phospho-Erk1/2, Erk1/2 (Cell Signaling Tech., Danvers, Mass.), and TM4SF5 (homemade). […]
On the technique in general: A western blot detects proteins with antibodies after separation by electrophoresis.

Assay [5] has as its system TM4SF5 null SNU449Cp cells. The assay is described as follows: Inhibitory effect on cell growth, TM4SF5-null control cells. The conditions noted are these: 20 μM, 3 days. The procedure:
After virus infection, pooled stable clones (control SNU449Cp and TM4SF5-expressing SNU449Tp cell clones) and single cell-driven stable clones (TM4SF5-expressing SNU449T16) were prepared by infecting SNU449 hepatocytes (Korean Cell Bank, Seoul, Korea) with retrovirus for empty pLNCX or pLNCX with TM4SF5. Parental and control cells (Cp) were maintained in RPMI-1640/10% FBS/0.25 μg/ml gentamycin (Calbiochem, San Diego, Calif.) without or with 200 μg/ml G418 (A.G. Scientific Inc., San Diego, Calif.), respectively, at 37° C. and 5% CO2. Cells endogenously expressing TM4SF5 or cells endogenously expressing no TM4SF5 (Korean Cell Bank) were maintained in either DMEM-H or RPMI-1640 media with 10% FBS (JBI Inc., Daegu, Korea).

The subject of assay [6] is SNU449T16 cells introduced with GFP control, wild-type FAK, paxillin or p130Cas cDNA. Briefly: TA-mediated effects under overexpression of focal adhesion molecules. How it is done:
Whole cell lysates from cells under diverse experimental conditions were prepared, as described in the literature (Lee, S. Y. et al., Focal adhesion and actin organization by a cross-talk of TM4SF5 with integrin α2 are regulated by serum treatment, Exp Cell Res, 312, pp. 2983-99, 2006). For example, cells were subjected to electroporation (950 μF, 250 V) with a control GFP, wild-type focal adhesion kinase (FAK), paxillin, p130Cas cDNA. One day after electroporation, cells were treated with TA (20 μM) for the indicated periods. Cells cultured normally or treated with TA at different concentrations for the indicated periods were harvested using RIPA buffer. Control or tumor tissues from nude mice were frozen immediately after surgery using liquid N2. Tissues in the liquid N2 was homogenized using a mortar and pestle, and extracted using 0.1% SDS containing RIPA buffer. Standard Western blots of lysates were performed by using antibody against phospho-Y^397, Y^407, Y^577, Y^861, Y^925 FAK (BioSource International, Inc., Camarillo, Calif.), phospho-Y^416Src, c-Src, p15^INK4B, p16^INK4A (Santa Cruz Biotech., Santa Cruz, Calif.), FAK, p130Cas, paxillin, pY^118paxillin, active caspase-3 (BD Transduct. Lab., San Jose, Calif.), α-tubulin (Sigma, St Louis, Mo.), phopsho-S^473, or T^308Akt, Akt, phospho-Erk1/2, Erk1/2 (Cell Signaling Tech., Danvers, Mass.), and TM4SF5 (homemade).
To evaluate whether overexpression of focal adhesion molecules such as focal adhesion kinase (FAK), paxillin, and p130Cas would block the effects of TA treatment, the following procedure was performed as described in the literature (Lee, S. Y. et al., Focal adhesion and actin organization by a cross-talk of TM4SF5 with integrin α2 are regulated by serum treatment, Exp Cell Res, 312, pp. 2983-99, 2006).
To explore this, each cDNA was introduced into SNU449T16 cells via electroporation. After 1 day, the cells were treated with 20 μM TA for 24 hrs to obtain lysates. […] Therefore, the TA-mediated effects on TM4SF5-expressing cells could be overcome to a certain degree by overexpression of focal adhesion molecules. On the other hand, changes in Erk1/2 activation were not observed under each experimental condition, thereby understanding TA-mediated effects on signal transduction in this experimental system.

These results are taken from US8299049B2, “Compositions comprising an extract of Tiarella polyphylla or compounds isolated therefrom for preventing and treating cancer diseases” (Korea Institute of Bioscience and Biotechnology, priority 2007, dated 2012).

On to `C=C(C)C1CC[C@]2(C)CC[C@]3(C(=O)O)C(CCC4[C@@]5(C)CC[C@H](O)[C@@](C)(CO)C5CC[C@]43C)C12` (some centres unmarked) [tiarellic acid (TA), 3,23-dihydroxy-20(29)-lupen-27-oic acid], for which, in assay [1], the adhesion entry was “not affected”. Besides, the “sub-G1 populations (cellular DNA content)” value in assay [2] was “significant sub-G1 populations”. Moreover, the focal adhesion formation entry with TM4SF5-null cells was “did not affect”. For the same molecule, the “Akt and caspase-3 activity” value in assay [3] was “Akt inactivation and caspase-3 activation”. In addition, in assay [4] (FIG. 11), the pErk1/2 result is reported as “slightly increased”. In assay [4] (TA up to 20 μM, 24 hrs), the “FAK and paxillin phosphorylations and p130Cas protein levels” value is “no effect”. Moreover, the “inhibitory effect on cell growth” value in assay [5] is “not observed”. Further, the “TA-mediated increases in the sub-G1 population under overexpression” value in assay [6] (SNU449T16 overexpressing focal adhesion molecules) was “blocked”. Besides, the “focal adhesion molecule and caspase-3 activity” value in assay [6] (SNU449T16 with control plasmid (GFP), 20 μM TA) is “time-dependent inactivation of focal adhesion molecules and activation of caspase-3”. Also, the “TA-mediated effects under overexpression” value in assay [6] (SNU449T16 with wild-type FAK, paxillin, or p130Cas, 20 μM TA) is given as “certain degrees of blocking”. Also, in assay [6] (each experimental condition), the “changes in Erk1/2 activation” value was “not observed”.
